Like-named read-outs stand apart in the source and are kept apart here.
System: effect of IL-1β on SEAP reporter gene activity in selected NIH3T3 cells
Assay: IL-1β-induced SEAP reporter gene activity in selected NIH3T3 cell clones
Type: cell-based
Conditions: IL-1β-stimulated selected NIH3T3 cells, read-out: IC50 value of the inhibition of SEAP activity

SMILES | IC50 (Mus musculus) | IC50
N#CC(=C(/N)Sc1ccccc1N)/C(C#N)=C(\N)Sc1ccccc1N [U0126] | ~1000 nM | –
Cc1ccc(-c2cc(C(F)(F)F)nn2-c2ccc(S(N)(=O)=O)cc2)cc1 [celecoxib] | ~200 nM | –
COc1cccc(-c2cc(=O)c3ccccc3o2)c1N [PD98059] | – | ~1000 nM
